Source: patent publication US20230091047A1 (priority 2019, published 2023)
Read-outs that look alike come from different tables or passages of the source.

Legend:
[1] = in vitro; format: cell-based; conditions: human, HepG2 or HepG2.117 cells, ATPlite, mean value
Method in brief: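 Luminescent ATP quantitation served as the viability endpoint following a 3- or 4-day incubation with test compounds.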

[2] = tested on: HBV (HepG2.117 cell line, inducibly HBV producing); assay: Anti-HBV activity: intracellular HBV DNA by real-time PCR in HepG2.117 cells after 3 days of treatment; format: cell-based, hepatitis B virus
Method in brief: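 Tet-off HepG2.117; HBV replication induced (no doxycycline); serial compound dilutions, 3 d; intracellular HBV DNA by real-time PCR, HBV-specific primers/probe.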

[3] = 3-days incubation (unmarked values)
[4] = Hepatitis B virus, HepG2.117, 72 h, HepG2.117 cells, 3 days of treatment, intracellular HBV DNA by real-time PCR; mean value; read-out: EC50 (μM, mean value)
[5] = 3-days incubation (not marked with *)
[6] = Hepatitis B virus, HepG2.117, 72 h, HepG2.117 cells, intracellular HBV DNA by real-time PCR, 3 days of treatment, mean value; read-out: EC50 (μM, mean value)

SMILES	CC50 at 3 days [1, 3] [µM]	EC50 [2, 4] [µM]	CC50 at 3 days [1, 5] [µM]	EC50 [2, 6] [µM]	other results
CNC(=O)c1ccc(-n2c(N3CCC3(C)C)nc3c(c2=O)C[C@@H](C)N(C(=O)c2ccc(Cl)c(Cl)c2)C3)cc1 [Compound C303, 4-[(6R)-7-(3,4-dichlorobenzoyl)-2-(2,2-dimethylazetidin-1-yl)-6-methyl-4-oxo-5,6,7,8-tetrahydropyrido[3,4-d]pyrimidin-3(4H)-yl]-N-methylbenzamide]	26.7	0.07	–	–	–
CNC(=O)c1ccc(-n2c(NC(C)C)nc3c(c2=O)C[C@@H](C)N(C(=O)c2ccc(C(C)(F)F)cc2)C3)cc1 [Compound C573]	–	–	> 50	0.32	–
COc1ccc(CNc2nc3c(c(=O)n2-c2cccc4ocnc24)CCN(C(=O)c2ccc(Cl)c(Cl)c2)C3)cc1 [Compound C148, 3-(1,3-benzoxazol-4-yl)-7-(3,4-dichlorobenzoyl)-2-{[(4-methoxyphenyl)methyl]amino}-5,6,7,8-tetrahydropyrido[3,4-d]pyrimidin-4(3H)-one]	> 38	1.48	–	–	–
CC(C)Nc1nc2c(c(=O)n1-c1ccc(S(C)(=O)=O)cc1)C[C@@H](C)N(C(=O)c1ccc(Cl)c(Cl)c1)C2 [Compound C100A, (6R)-7-(3,4-dichlorobenzoyl)-3-[4-(methanesulfonyl)phenyl]-6-methyl-2-[(propan-2-yl)amino]-5,6,7,8-tetrahydropyrido[3,4-d]pyrimidin-4(3H)-one]	> 50	–	–	–	EC50 ([2]; HepG2.117 cells, 3 days of treatment, intracellular HBV DNA by real-time PCR; mean value; read-out: EC50 (μM, mean value)): 0.27 µM
COc1ccc(CNc2nc3c(c(=O)[nH]2)CCN(C(=O)c2cc4ccc(Cl)cc4[nH]2)C3)cc1 [Compound C79, 7-(6-chloro-1H-indole-2-carbonyl)-2-{[(4-methoxyphenyl)methyl]amino}-5,6,7,8-tetrahydropyrido[3,4-d]pyrimidin-4(3H)-one]	37.5	2.32	–	–	–
CNC(=O)c1ccc(-n2c(NCc3ncnn3-c3ccccc3)nc3c(c2=O)C[C@@H](C)N(C(=O)c2ccc(Cl)c(Cl)c2)C3)cc1 [Compound C553]	–	–	> 50	23.7	–
COc1cc(C(=O)NC2CC2)ccc1-n1c(NC(C)C)nc2c(c1=O)C[C@@H](C)N(C(=O)c1ccc(Cl)c(C(F)(F)F)c1)C2 (single isomer, unassigned) [Compound C678a]	–	–	43	0.04	–
CNC(=O)c1ccc(-n2c(NCc3n[nH]c(C)n3)nc3c(c2=O)C[C@@H](C)N(C(=O)c2ccc(Cl)c(Cl)c2)C3)cc1 [Compound C541]	–	–	> 50	> 25	–
CC(C)Nc1nc2c(c(=O)n1-c1ccc(-c3cc[nH]n3)cc1)C[C@@H](C)N(C(=O)c1ccc(Cl)c(Cl)c1)C2 [Compound C241, (6R)-7-(3,4-dichlorobenzoyl)-6-methyl-2-[(propan-2-yl)amino]-3-[4-(1H-pyrazol-3-yl)phenyl]-5,6,7,8-tetrahydropyrido[3,4-d]pyrimidin-4(3H)-one]	33.1	0.19	–	–	–
COc1ccccc1-n1c(NCc2cncs2)nc2c(c1=O)CCN(C(=O)c1ccc(Cl)c(Cl)c1)C2 [Compound C19, 7-(3,4-dichlorobenzoyl)-3-(2-methoxyphenyl)-2-{[(1,3-thiazol-5-yl)methyl]amino}-5,6,7,8-tetrahydropyrido[3,4-d]pyrimidin-4(3H)-one]	> 50	8.77	–	–	–
CCOC(=O)c1cccc(-n2c(NCc3ccc(OC)cc3)nc3c(c2=O)CCN(C(=O)c2ccc(Cl)c(Cl)c2)C3)c1 [Compound C74, ethyl 3-[7-(3,4-dichlorobenzoyl)-2-{[(4-methoxyphenyl)methyl]amino}-4-oxo-5,6,7,8-tetrahydropyrido[3,4-d]pyrimidin-3(4H)-yl]benzoate]	> 50	1.43	–	–	–
CNC(=O)c1ccc(-n2c(NC(C)C)nc3c(c2=O)C[C@@H](C)N(C(=O)c2cc4ccncc4s2)C3)cc1 [Compound C503]	–	–	> 50	6.32	–
COc1ccccc1-n1c(NCc2ccc(C(F)(F)F)cc2)nc2c(c1=O)CCN(C(=O)c1ccc(Cl)c(Cl)c1)C2 [Compound C23, 7-(3,4-dichlorobenzoyl)-3-(2-methoxyphenyl)-2-({[4-(trifluoromethyl)phenyl]methyl}amino)-5,6,7,8-tetrahydropyrido[3,4-d]pyrimidin-4(3H)-one]	–	2.56	–	–	CC50 at 4 days ([1]; 4-days incubation (values marked with *)): > 50 µM
CC(C)Nc1nc2c(c(=O)n1-c1ccc(S(C)(=O)=O)cc1)CCN(C(=O)c1ccn3cncc3c1)C2 [Compound C361]	> 50	> 50	–	–	–
CNC(=O)c1ccc(-n2c(NC(C)C)nc3c(c2=O)C[C@@H](C)N(C(=O)c2ccc(Cl)c(Cl)c2)C3)nn1 [Compound C281, 6-[(6R)-7-(3,4-dichlorobenzoyl)-6-methyl-4-oxo-2-[(propan-2-yl)amino]-5,6,7,8-tetrahydropyrido[3,4-d]pyrimidin-3(4H)-yl]-N-methylpyridazine-3-carboxamide]	> 50	0.16	–	–	–
CNC(=O)c1ccc(-n2c(NC(C)C)nc3c(c2=O)C[C@@H](C)N(C(=O)c2ccc(Cl)c(C(F)(F)F)c2)C3)c(Cl)c1 (single isomer, unassigned) [Compound C639a]	–	–	> 50	0.02	–
CNC(=O)c1ccc(-n2c(N[C@@H](C)c3ccccc3OC(F)F)nc3c(c2=O)C[C@@H](C)N(C(=O)c2ccc(Cl)c(Cl)c2)C3)cc1 (single isomer, unassigned) [Compound C438b]	–	–	29.9	0.15	–
C[C@@H]1Cc2c(nc(NCc3ccncn3)n(-c3ccc(S(C)(=O)=O)cc3)c2=O)CN1C(=O)c1ccc(Cl)c(Cl)c1 [Compound C150, (6R)-7-(3,4-dichlorobenzoyl)-3-[4-(methanesulfonyl)phenyl]-6-methyl-2-{[(pyrimidin-4-yl)methyl]amino}-5,6,7,8-tetrahydropyrido[3,4-d]pyrimidin-4(3H)-one]	> 50	5.44	–	–	–
COc1ccc(CN(CCCO)c2nc3c(c(=O)[nH]2)CCN(C(=O)c2ccc(Cl)c(Cl)c2)C3)cc1 [Compound C90, 7-(3,4-dichlorobenzoyl)-2-{(3-hydroxypropyl)[(4-methoxyphenyl)methyl]amino}-5,6,7,8-tetrahydropyrido[3,4-d]pyrimidin-4(3H)-one]	21.2	8	–	–	–
CNC(=O)c1ccc(-n2c(NC(C)C)nc3c(c2=O)C[C@@H](C)N(C(=O)c2nn(C)c4ccccc24)C3)cc1 [Compound C477]	–	–	> 50	10.2	–
CNC(=O)c1ccc(-n2c(NC(C)C)nc3c(c2=O)C[C@@H](C)N(C(=O)c2ccc(Cl)cc2Cl)C3)cc1 [Compound C582]	–	–	> 50	2.34	–
CC(C)Nc1nc2c(c(=O)n1-c1ccc(C(=O)N3CCOCC3)cc1)C[C@@H](C)N(C(=O)c1ccc(Cl)c(C(F)F)c1)C2 [Compound C682]	–	–	> 50	0.12	–
CC(C)Nc1nc2c(c(=O)n1-c1ccc(-c3cncs3)cc1)CCN(C(=O)c1ccc(Cl)c(Cl)c1)C2 [Compound C188, 7-(3,4-dichlorobenzoyl)-2-[(propan-2-yl)amino]-3-[4-(1,3-thiazol-5-yl)phenyl]-5,6,7,8-tetrahydropyrido[3,4-d]pyrimidin-4(3H)-one]	> 50	0.51	–	–	–
CNC(=O)c1ccc(-n2c(NCc3ccc(OC)cc3)nc3c(c2=O)CCN(C(=O)c2ccc(Cl)c(Cl)c2)C3)cc1F [Compound C220, 4-[7-(3,4-dichlorobenzoyl)-2-{[(4-methoxyphenyl)methyl]amino}-4-oxo-5,6,7,8-tetrahydropyrido[3,4-d]pyrimidin-3(4H)-yl]-2-fluoro-N-methylbenzamide]	> 50	0.42	–	–	–
COc1ccc(CNc2nc3c(c(=O)n2C2COC2)CCN(C(=O)c2ccc(Cl)c(Cl)c2)C3)cc1 [Compound C58, 7-(3,4-dichlorobenzoyl)-2-{[(4-methoxyphenyl)methyl]amino}-3-(oxetan-3-yl)-5,6,7,8-tetrahydropyrido[3,4-d]pyrimidin-4(3H)-one]	42.8	2.56	–	–	–
CNC(=O)c1ccc(-n2c(OC(C)C)nc3c(c2=O)C[C@@H](C)N(C(=O)c2ccc(Cl)c(Cl)c2)C3)cc1 [Compound C289, 4-[(6R)-7-(3,4-dichlorobenzoyl)-6-methyl-4-oxo-2-[(propan-2-yl)oxy]-5,6,7,8-tetrahydropyrido[3,4-d]pyrimidin-3(4H)-yl]-N-methylbenzamide]	> 50	0.08	–	–	–
C[C@H](Nc1nc2c(c(=O)n1-c1ccc(-n3cccn3)cc1)C[C@@H](C)N(C(=O)c1ccc(Cl)c(Cl)c1)C2)c1ccc(OC(F)(F)F)cc1 (single isomer, unassigned) [Compound C463b]	–	–	> 50	7.21	–
CNC(=O)c1ccc(-n2c(NC(C)C)nc3c(c2=O)C[C@@H](C)N(C(=O)c2cc(Cl)c(Cl)cc2OC)C3)cc1 [Compound C590]	–	–	> 50	12.4	–
CC(C)Nc1nc2c(c(=O)n1-c1ccc(C(=O)NC3CC3)cc1Cl)C[C@@H](C)N(C(=O)c1ccc(Cl)c(C(F)(F)F)c1)C2 (single isomer, unassigned) [Compound C673a]	–	–	> 25	0.03	–
CCc1cc(C(=O)N2CCc3c(nc(NC(C)C)n(-c4ccc(S(C)(=O)=O)cc4)c3=O)C2)ccc1Cl [Compound C193, 7-(4-chloro-3-ethylbenzoyl)-3-[4-(methanesulfonyl)phenyl]-2-[(propan-2-yl)amino]-5,6,7,8-tetrahydropyrido[3,4-d]pyrimidin-4(3H)-one]	> 50	0.62	–	–	–
